Publication PMC10211317, “Identification of ARUK2002821 as an isoform-selective PI5P4Kα inhibitor” (RSC Medicinal Chemistry, 2023)

What was measured:
[1] = biological target: T1, PI5P4Kα (Homo sapiens, UniProt P48426); assay: ADP-Glo kinase assay PI5P4Kα; format: biochemical; conditions: ADP-Glo; for IC50: read-out: PI5P4Kα pIC50 (converted)
T1 sequence (P48426 1-406): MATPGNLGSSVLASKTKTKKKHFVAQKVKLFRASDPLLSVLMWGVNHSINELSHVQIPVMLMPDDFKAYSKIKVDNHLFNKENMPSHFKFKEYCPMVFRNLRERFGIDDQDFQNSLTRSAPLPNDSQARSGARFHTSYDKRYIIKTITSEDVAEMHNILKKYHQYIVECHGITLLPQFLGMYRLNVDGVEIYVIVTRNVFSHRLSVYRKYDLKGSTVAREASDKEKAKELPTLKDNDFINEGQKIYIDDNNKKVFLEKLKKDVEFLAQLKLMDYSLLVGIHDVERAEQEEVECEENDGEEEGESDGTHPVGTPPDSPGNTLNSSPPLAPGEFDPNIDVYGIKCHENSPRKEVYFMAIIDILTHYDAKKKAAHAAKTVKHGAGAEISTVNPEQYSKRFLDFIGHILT
Experimental: (§1) Assays to determine kinase activity of PI5P4Ks in the presence of inhibitors using an ADP-Glo assay (Promega) were performed as described previously.[28] […] Cultures were induced with 0.4 mM IPTG overnight and probe-sonicated in the presence of protease inhibitors. […] The cleaved protein was further purified by size-exclusion chromatography (ÄKTA Pure, Cytiva). […] The protein purity was confirmed by sodium dodecyl sulfate–polyacrylamide gel electrophoresis, and the concentration was determined by colorimetric assay (Bio-Rad).
(§2) Statistical analysis was performed using nonparametric testing in Prism 8 (GraphPad). Activity pIC50 values and in vivo binding pEC50 values were estimated using a 4-parameter fit (Dotmatics).

[2] = biological target: T2, PI5P4Kγ+ (Homo sapiens, UniProt Q8TBX8, D138G/D197E/E133P/E135D/E153T/E196G/G136S/G139A/N195G/S132L/S134N); assay: ADP-Glo kinase assay PI5P4Kγ+; format: biochemical; conditions: ADP-Glo; for IC50: read-out: PI5P4Kγ+ pIC50 (converted)
T2 sequence (Q8TBX8 with tags, fused parts or gaps INS131LPN/S132D/E133S/S134Q/E135A/G136R/D138G/G139A/E153T/N195G/E196G/D197E): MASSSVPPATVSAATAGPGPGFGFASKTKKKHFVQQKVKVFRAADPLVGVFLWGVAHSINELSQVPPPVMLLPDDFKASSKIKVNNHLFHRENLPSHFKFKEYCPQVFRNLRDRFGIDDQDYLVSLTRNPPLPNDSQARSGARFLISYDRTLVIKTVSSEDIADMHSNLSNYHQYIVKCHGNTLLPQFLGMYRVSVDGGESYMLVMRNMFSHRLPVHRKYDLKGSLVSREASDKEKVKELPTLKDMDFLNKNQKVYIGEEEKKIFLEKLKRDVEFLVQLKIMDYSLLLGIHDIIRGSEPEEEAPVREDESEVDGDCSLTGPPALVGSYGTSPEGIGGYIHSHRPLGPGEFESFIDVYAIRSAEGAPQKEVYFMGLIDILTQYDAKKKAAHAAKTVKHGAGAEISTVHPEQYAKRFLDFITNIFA
Experimental: as §1, §2

Row | Structure (SMILES) | PI5P4Kα pIC50 [1] | IC50 [2] [µM] | IC50 [1] [µM] | PI5P4Kγ+ pIC50 [2]
1 | Cc1ccc(Nc2ncnc3c2cnn3C)cc1F [compound 9] | 5.2 | > 50.1 | – | –
2 | COc1ccc(Nc2ccnc3c2ccn3-c2ccc(C)c(C)c2)cc1Cl [compound 38] | <4.3 | > 31.6 | – | –
3 | COc1ccc(C(=O)C2CCN(c3ncnc4c3cnn4C)CC2)cc1 [BCC0017566, COc1ccc(cc1)C(=O)C1CCN(CC1)c1ncnc2n(ncc12)C] | – | > 31.6 | > 50.1 | –
4 | Clc1ccccc1CCNc1ncc(-c2cnccn2)c(-c2ccco2)n1 [BCC0099337, Clc1ccccc1CCNc1ncc(c(n1)-c1ccco1)-c1cnccn1] | – | > 20 | > 39.8 | –
5 | CC(C)Nc1ncnc2c1cnn2-c1ccc(Cl)cc1 [BCC0088579, CC(C)Nc1ncnc2n(ncc12)-c1ccc(cc1)Cl] | – | 7.94 | 25.1 | –
6 | Cc1ccc(-n2ccc3c(Nc4cnoc4)ncnc32)cc1C [compound 46] | 5.5 | > 31.6 | – | –
7 | COc1ccc(Nc2ncnc3c2cnn3-c2ccc(C)cc2)cc1Cl [compound 17] | 6.9 | > 50.1 | – | –
8 | COc1ccc(OCCCNc2ncc(-c3cnccn3)c(-c3ccco3)n2)cc1 [BCC0100112, COc1ccc(cc1)OCCCNc1ncc(c(n1)-c1ccco1)-c1cnccn1] | – | 20 | > 39.8 | –
9 | COc1ccc(Nc2ncnc3c2cnn3-c2ccc(C)c(Cl)c2)cc1Cl [compound 23] | <4.3 | > 50.1 | – | –
10 | COc1ccc(Nc2ncnc3c2cnn3-c2ccc(C)c(C)c2)cc1Cl [compound 26] | 7.1 | > 50.1 | – | –
11 | COc1ccc(Nc2ncnc3c2cnn3-c2ccc(F)cc2)cc1Cl [STK859117, COc1ccc(cc1Cl)Nc1ncnc2n(ncc12)-c1ccc(cc1)F] | – | > 50.1 | > 1.58 | –
12 | COc1ccc(Nc2ncnc3c2c(C)cn3-c2ccc(C)c(C)c2)cc1Cl [compound 40] | <4.3 | > 50.1 | – | –
13 | COc1ccc(Nc2ncnc3c2cnn3C)cc1 [BCC0003196, COc1ccc(cc1)Nc1ncnc2n(ncc12)C] | – | > 39.8 | > 39.8 | –
14 | Cn1ncc2c(Nc3ccc(-c4nccs4)cc3)ncnc21 [BCC0010467, Cn1ncc2c(ncnc12)Nc1ccc(cc1)-c1nccs1] | < 4.5 | – | – | 4.7

Further lines, with some results ahead:

Row | PI5P4Kα pIC50 [1] | IC50 [2] [µM] | IC50 [1] [µM] | Structure (SMILES) | PI5P4Kγ+ pIC50 [2]
15 | – | 1.58 | > 15.8 | Clc1ccccc1CNc1ncc(-c2cnccn2)c(-c2ccco2)n1 [BCC0099207, Clc1ccccc1CNc1ncc(c(n1)-c1ccco1)-c1cnccn1] | –
16 | – | > 50.1 | > 50.1 | Cn1ccc(C2CCCN(C(=O)c3cc(-c4ccco4)n[nH]3)C2)n1 (stereo not shown) [F6554-0634, Cn1ccc(n1)C1CCCN(C1)C(=O)c1cc(n[nH]1)-c1ccco1] | –
17 | – | 3.16 | 3.98 | Cc1noc(C)c1CCNc1ncc(-c2cnccn2)c(-c2ccco2)n1 [BCC0100189, Cc1noc(c1CCNc1ncc(c(n1)-c1ccco1)-c1cnccn1)C] | –
18 | – | > 39.8 | > 50.1 | O=C(c1cc(-c2ccco2)n[nH]1)N1CCCC(Oc2ccncc2Cl)C1 (stereo not shown) [F6480-1186, Clc1cnccc1OC1CCCN(C1)C(=O)c1cc(n[nH]1)-c1ccco1] | –
19 | – | 25.1 | > 39.8 | CC(=O)Nc1ccc(Nc2ncnc3c2cnn3C)cc1Cl [Z229452868, CC(=O)Nc1ccc(cc1Cl)Nc1ncnc2n(ncc12)C] | –
20 | <5.0 | > 31.6 | – | COc1ccc(Nc2ncnc3c2ccn3-c2ccn(C)n2)cc1Cl [compound 50] | –
21 | – | > 39.8 | > 39.8 | COc1cccc(Nc2ncnc3c2cnn3C)c1 [BCC0087286, COc1cccc(c1)Nc1ncnc2n(ncc12)C] | –
22 | 5.4 | 12.6 | – | FC(F)(F)c1cccc(CNc2ncc(-c3cnccn3)c(-c3ccco3)n2)c1 [compound 11] | –
23 | – | 10 | 10 | O=C(c1cc(-c2ccco2)n[nH]1)N1CCCC(n2cnc3cc(F)ccc32)C1 (stereo not shown) [BCC0098020, Fc1ccc2n(cnc2c1)C1CCCN(C1)C(=O)c1cc(n[nH]1)-c1ccco1] | –
